# Data as given in US20110105554A1, “MEANS FOR TREATING MYOSIN-RELATED DISEASES” (KINARIS BIOMEDICALS GMBH, priority 2007, published 2011).
# Experiments:
# chicken myosin-5a = chicken myosin-5a (Gallus gallus, UniProt Q02440); assay: In vitro motility assay (actin filament sliding), myosin-5a; format: biochemical; details: 10 μM PBP
# Protocol: (b) Inhibition of chicken myosin-5a by PBP in the in vitro motility assay. The histograms show the average sliding velocity of Rh/Ph-labeled actin filaments in the absence and presence of 10 μM PBP. Myosin-5a moves actin filaments with an average velocity of 0.6 μm/s±0.05 (dark bars); addition of 10 μM PBP into the same flow cell decreases the average sliding velocity to 0.013 μm/s±0.002 (light grey bars).
# The extent and order of isoform-specific differences in the potency of the inhibitor were additionally confirmed by the results of in vitro motility assays). […] (FIG. 11a) Myosin-5a moves actin filaments with an average velocity of 0.6 μm/s±0.05 (dark bars); addition of 10 μM PBP into the same flow cell lead to a 46-fold reduction of the average sliding velocity to 0.013 μm/s±0.002 (light grey bars).
# Direct functional Assays. Actin-sliding motility was performed at 25° C. using an Olympus IX81 inverted fluorescence microscope. Experimental flow cells were constructed using bovine serum albumin (0.5 mg/ml in assay buffer)-coated glass slides and nitrocellulose-coated coverslips. Myosins were actin affinity-purified immediately before use, to remove rigor heads^20. […] Average sliding velocity was determined from the Gaussian distribution of automatically tracked actin filaments using DiaTrack 3.0 and Origin 7.0.
# [1] = test system: human hepatocyte carcinoma cells (Hep G2); assay: cells; details: Homo sapiens, HepG2, 4 h, read-out: half effective concentration EC50, neutral red uptake
# Protocol: Cytotoxicity may be assayed by determining the cellular uptake of neutral red. Only living cells are capable of neutral red uptake via an active transport mechanism. For an exemplary workflow of a cytotoxicity assay, see FIG. 16.
# FIG. 16: Cytotoxicity assay.
# FIG. 22: Cytotoxic testing of KIN-compounds by neutral red uptake assays. (a) human hepatocyte carcinoma cells (Hep G2) were exposed to KIN-43 for 4 h in the in presence of 1% FBS.
# We are using a library of common organic molecules and functional groups and are applying an empirical force field description of the nonbonding interactions between a ligand and the binding site in order to build up de novo compounds with spatial and electrostatic properties complementary to the allosteric binding site.
# [2] = test system: heavy meromyosin (HMM) prepared from rabbit skeletal muscle myosin-2; assay: Inhibitor screening: colorimetric high-throughput myosin ATPase assay with HMM; format: biochemical
# Excerpt: Preferably, said activity is the capability of said myosin (i) to bind actin; (ii) to convert ATP into ADP and Pi; and/or (iii) to generate force and/or movement. Exemplary or preferred binding assays are described herein above and can be applied for determining whether myosin binds actin, preferably F-actin, and/or nucleotides. Exemplary or preferred activity assays are described herein below and can be applied for determining whether myosin is capable of converting ATP into ADP and Pi or of force production and generation of movement. An exemplary assay for ATPase activity is based on the detection of free phosphate formed upon cleavage of ATP, wherein the detection is effected using malachite green. For an exemplary workflow, see FIG. 17.
# FIG. 6: Histogram showing the relative myosin-2 ATPase activity measured in the absence (+control) and presence of halogenated alkaloids. Blebbistatin und BTS were used as controls. Compounds of the HET-series, BTS and blebbistatin were used at 25 μM final concentration. HET-43 is PBP (pentabromopseudilin). […]
# Inhibitor screening. […] The amount of dye formed after 20 min color development at room temperature was determined with a Tecan Infinite™ microplate reader (Cralisheim, Germany).
# Sequence of chicken myosin-5a (Q02440 1-764): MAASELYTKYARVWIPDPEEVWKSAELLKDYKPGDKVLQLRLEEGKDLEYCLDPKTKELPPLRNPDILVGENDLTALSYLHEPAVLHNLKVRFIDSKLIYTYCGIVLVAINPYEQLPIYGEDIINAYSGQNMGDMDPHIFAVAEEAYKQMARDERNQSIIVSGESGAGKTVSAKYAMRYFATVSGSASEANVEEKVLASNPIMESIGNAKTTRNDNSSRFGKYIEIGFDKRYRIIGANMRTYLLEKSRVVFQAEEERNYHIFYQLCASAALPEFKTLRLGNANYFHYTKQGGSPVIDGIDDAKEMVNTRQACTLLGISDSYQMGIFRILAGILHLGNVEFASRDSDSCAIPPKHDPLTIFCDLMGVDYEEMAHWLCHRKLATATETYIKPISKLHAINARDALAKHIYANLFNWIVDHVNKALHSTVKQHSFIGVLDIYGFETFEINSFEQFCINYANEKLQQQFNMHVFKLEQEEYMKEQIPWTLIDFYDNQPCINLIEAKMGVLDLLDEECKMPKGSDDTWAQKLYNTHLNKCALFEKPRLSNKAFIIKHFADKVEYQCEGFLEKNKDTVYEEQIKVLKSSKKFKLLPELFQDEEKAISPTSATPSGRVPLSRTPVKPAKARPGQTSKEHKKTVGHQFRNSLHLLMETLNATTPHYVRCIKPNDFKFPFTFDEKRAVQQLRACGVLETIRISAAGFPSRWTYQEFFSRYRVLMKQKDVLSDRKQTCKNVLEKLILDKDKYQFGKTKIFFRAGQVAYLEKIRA
smiles,measurement,setting,value
Oc1c(Br)cc(Br)cc1-c1[nH]c(Br)c(Br)c1Br [KIN-43],fold reduction of the average sliding velocity,chicken myosin-5a,46 fold
same,average sliding velocity of actin filaments,chicken myosin-5a; 0.6 μm/s without,0.013 μm/s
same,EC50,[1],30 nM
same,inhibition of HMM ATPase activity,[2],very potent inhibitor
